The text below walks through data of patent US7476692B2, “Pharmaceutical compositions of safingol and methods of using the same” (priority 2003, dated 2009).

≈ marks a conversion by molar mass, not a printed value.

In one data set the test system is Fisher rats. The settings on record: Group III: 4-HPR 61 mg/kg/d D1-5 continuous iv, safingol 0; 3 male rats.
Data set [1] is described as follows: Solubility/miscibility studies of safingol in solvent systems.
Experimental: (§1) The following solubility/miscibility studies were performed with safingol at various concentrations.
Another data set concerns protein kinase C (PKC). The settings on record: variously reported; acting at the regulatory subunit of PKCs; cited from earlier work.
The next data set deals with sphingosine kinase. The settings on record: variously reported in the literature; cited from earlier work.

Experimental for physchem: as §1

For `CC1=C(/C=C/C(C)=C/C=C/C(C)=C/C(=O)Nc2ccc(O)cc2)C(C)(C)CCC1` [4-HPR, fenretinide], in the data set with Fisher rats, the “Toxicity: din path” value is on record as “din path: normal”, the “Toxicity: dinical signs” value is on record as “dinical signs: normal”, the “Toxicity: necropsy: discoloration(lung)” value is listed as 3/3 and the “Toxicity: necropsy: emaciation” value was 1/3.
Usually solubility stands for how much of the substance goes into solution per volume. As for `CCCCCCCCCCCCCCC[C@H](O)[C@@H](N)CO` [Safingol, (2S,3S)-2-amino-1,3-octadecanediol], the “Precipitate at 2° C. to 8° C.” value in data set [1] (50:50 Ethanol:WFI with lactic acid) is on record as “precipitate formation”; in data set [1] (Lactic acid in 2% EPL in WFI), “no precipitate”; in data set [1] (Lactic acid/Ethanol), “precipitate formation”; in data set [1] (Lactic acid/WFI), “precipitate formation”; in data set [1] (Propionic acid/WFI) it was “precipitate formation”. In addition, the “Solubility (Result)” value was “not soluble” in data set [1] (Castor oil); “not soluble” in data set [1] (Citric acid/WFI); “not soluble” in data set [1] (DMSO); “not soluble” in data set [1] (HC1/WFI); “not soluble” in data set [1] (HCl/Ethanol); “solubility similar to lactic without EPL” in data set [1] (Lactic acid in 2% EPL in WFI). The “Solubility (Result)” value in data set [1] (Maleic acid/WFI) is reported as “not soluble”; in data set [1] (Malic acid/WFI), “not soluble”; in data set [1] (Methanesulfonic acid/Ethanol) it was “not soluble”; in data set [1] (Methanesulfonic acid/WFI), “not soluble, but the appearance of the safingol changed,”; in data set [1] (Neobee oil) it was “Not soluble”; in data set [1] (Pluronic F-68/WFI), “not soluble”. Also, the “Solubility (Result)” value in data set [1] (Safflower oil, attempted: 0.5 mg/mL) was “Not soluble (attempted: 0.5 mg/mL)”; in data set [1] (Sesame oil, attempted: 0.5 mg/mL) it was “Not soluble (attempted: 0.5 mg/mL)”; in data set [1] (Sodium Lactate/WFI) it was “not soluble”; in data set [1] (Soybean oil), “Not soluble”; in data set [1] (Tartaric acid/WFI) it was “not soluble”; in data set [1] (Tricaprylin, attempted: 0.5 mg/mL), “Not soluble (attempted: 0.5 mg/mL)”. Further, the “Solubility (Result)” value was “not soluble” in data set [1] (Tween-80); “Not soluble (attempted: 0.5 mg/mL)” in data set [1] (Valium solvent, attempted: 0.5 mg/mL); “not soluble” in data set [1] (Vitamin E (α-tocopherol)). Also, the “Temperature at which later found to be soluble” value in data set [1] (Neobee oil) and in data set [1] (Soybean oil) was approximately 80 °C each time. Further, the “Precipitates on chilling, versus non-ethanol-containing solutions” value in data set [1] (ethanol-containing safingol/lactic acid solutions chilled to 2-8° C., then warmed to room temperature) was “reduced in quantity and dissolved much more readily”. Further, the “Effect of ethanol on solubility of safingol” value in data set [1] (lactic acid/water solutions) was “substantially increased”. In addition, in the data set on protein kinase C (PKC), the “Inhibition of protein kinase C (PKC), including PKCζ” value is given as “inhibitor”. Also, the “Inhibition of sphingosine kinase” value with sphingosine kinase is recorded as “inhibitor”. Besides, the solubility is approximately 50000 µg/mL (≈ 166 mM) in the data set “physchem” (50:50 ethanol:WFI with lactic acid, aqueous with cosolvent or surfactant or cyclodextrin); 15700 µg/mL (≈ 52 mM) in the data set “physchem” (60:40 t-BuOH/WFI, aqueous with cosolvent or surfactant or cyclodextrin); 6600 to 7400 µg/mL (≈ 21.9 to 24.5 mM) in “physchem” (DMAC, organic solvent or mixture); 7220 µg/mL (≈ 23.9 mM) in the data set “physchem” (Diluent 12, organic solvent or mixture); 1010 to 1060 µg/mL (≈ 3.35 to 3.52 mM) in “physchem” (PEG 300, organic solvent or mixture); 7500 to 8200 µg/mL (≈ 24.9 to 27.2 mM) in “physchem” (ethanol, organic solvent or mixture). Also, the solubility was 10000 µg/mL (≈ 33.2 mM) in the data set “physchem” (lactic acid in WFI with 5 mg/mL mannitol, aqueous buffer); more than 10000 µg/mL in “physchem” (lactic acid/WFI, aqueous buffer); approximately 20000 µg/mL (≈ 66.3 mM) in the data set “physchem” (lactic acid/ethanol, organic solvent or mixture); not below 5000 µg/mL in the data set “physchem” (propionic acid/WFI, aqueous buffer); 1060 to 1350 µg/mL (≈ 3.52 to 4.48 mM) in “physchem” (propylene glycol, organic solvent or mixture); more than 25000 µg/mL in the data set “physchem” (t-butanol, organic solvent or mixture).
